For series [1], the system named is phosphodiesterase (PDE) from human blood platelets. As to the kind of experiment: PDE Inhibition (human blood platelet phosphodiesterase, 3H-cAMP hydrolysis). As to conditions: 1 μmol/liter 3H-cAMP, 15 minutes at 37° C., pH 7.4. It is filed as biochemical. As for the experimental part:
cAMP is hydrolyzed to AMP by phosphodiesterase (PDE) from various sources, including blood platelets.
The phosphodiesterase used was prepared by centrifugal extraction at 10,000 G from human blood platelets which were frozen in water and then thawed.
0.3 ml of a mixture containing 0.1 mol/liter of trihydroxy-aminomethane (pH 7.4), 3 mmols/liter of magnesium chloride, 1 mmol/liter of AMP, 1 μmol/liter of ^3 H-cAMP (specific activity about 10 MBq/μmol), PDE and the inhibitor under investigation (water in the case of the control) was incubated for 15 minutes at 37° C. The incubation was stopped by the addition of 0.5 ml zinc sulfate (0.266 mol/liter) and 0.5 ml barium hydroxide (0.226 mol/liter), the precipitate was centrifuged, and the activity remaining in the unreacted ^3 H-cAMP in the supernatant was determined. From a comparison of the results for inhibitor and control cases, the concentration of the respective inhibitor necessary for a 50% inhibiting effect (IC50) was calculated: […]

Series [2] can be described thus: Acute toxicity, single oral dose. It is filed as in vivo, mice. Particulars: mouse, in vivo; single oral dose of 250 mg (E: 1000 mg), 14 days observation, mice; read-out: animals that died out of 10. As for the experimental part: (§1) The acute toxicity of the compounds was determined in groups of 10 mice after oral administration of a single dose (observation period: 14 days): […]

The next series relates to mice. Kind of series: Acute toxicity, single oral dose. It is filed as in vivo. Particulars: groups of 10 mice, single oral dose, observation period 14 days; dose at which 0 out of 10 animals died. As for the experimental part: as §1
The next series relates to conscious mice. As to the kind of experiment: Determination of the prolongation of bleeding time (tail tip, oral, conscious mice). It is filed as in vivo. As to conditions: Mus musculus, 2.5 mg/kg oral, after 1 hour, compared to control group, 5 animals per experiment. As for the experimental part: To measure the bleeding time, 2.5 mg/kg of the test compound were administered orally to conscious mice. After one hour, 0.5 mm of the tip of the tail of each mouse was cut off and the droplets of blood were gently removed with filter paper every 30 seconds. The number of drops of blood thus obtained give a bleeding time (5 animals per experiment).
The results of the following table represent the prolongation of the bleeding time in percent as compared to a control group: […]

SMILES strings stand for the structures. Some results are limits rather than exact numbers.

Broadly, the IC50 is the concentration at which inhibition is half-maximal.

Consider `N=S(=O)(CCCCOc1ccc2c(c1)CCC(=O)N2)c1ccccc1` (stereo not shown) [B, 6-(4-phenylsulfoximino-butoxy)-3,4-dihydrocarbostyril], for which 2000 nM corresponded to half-maximal inhibition in series [1] (IC50). The mortality at 336 h in series [2] was 0%. For the same molecule, in the series on mice, the “Approximate acute toxicity (dose)” value is listed as 250 mg. This molecule also registered a change in vivo at 2.5 mg/kg in the series with conscious mice of over 161%.
The molecule `N=S(=O)(CCCCOc1ccc2c(c1)CCC(=O)N2)c1ccc(F)cc1` (stereo not shown) [C, 6-[4-(4-fluorophenyl-sulfoximino)-butoxy]-3,4-dihydrocarbostyril] had an IC50 in series [1] of 1200 nM. Moreover, in series [2], the mortality at 336 h was 0%. For the same molecule, the “Approximate acute toxicity (dose)” value in the series on mice is reported as 250 mg. The molecule also showed a change in vivo at 2.5 mg/kg with conscious mice of 125%.
On the same counts, the results for `CS(=N)(=O)CCCCOc1ccc2c(c1)CCC(=O)N2` (stereo not shown) [Compound A, 6-(4-methylsulfoximino-butoxy)-3,4-dihydrocarbostyril mesitylenesulfonate] are 45000 nM, 0%, 250 mg and 73%.
For `Cc1cc(S(=N)(=O)CCCCOc2ccc3[nH]c(=O)ccc3c2)ccc1Br` (stereo not shown) [Compound I, 6-[4-(3-methyl-4-bromophenyl-sulfoximino)-butoxy]-carbostyril], in that order: 39 nM, 0%, 250 mg and over 275%.
In turn, `N=S(=O)(CCCCOc1ccc2c(c1)CCC(=O)N2)c1ccc(Cl)cc1` (stereo not shown) [D, 6-[4-(4-chlorophenyl-sulfoximino)-butoxy]-3,4-dihydrocarbostyril] came in with an IC50 in series [1] of 840 nM. Besides, the mortality at 336 h in series [2] was 0%. Further, in the series on mice, the “Approximate acute toxicity (dose)” value is 250 mg. Also, in the series on conscious mice, the change in vivo at 2.5 mg/kg worked out at 53%.
Molecule `CC(=O)N=S(=O)(CCCCOc1ccc2c(c1)CCC(=O)N2)c1ccc(Cl)c(Cl)c1` (stereo not shown) [E, 6-[4-(N-acetyl-3,4-dichlorophenyl-sulfoximino)-butoxy]-3,4-dihydrocarbostyril] returned an IC50 in series [1] of 840 nM. Besides, the mortality at 336 h in series [2] was 0%. The “Approximate acute toxicity (dose)” value in the series with mice was 1000 mg. Moreover, the change in vivo at 2.5 mg/kg in the series with conscious mice is over 194%.
In series [1], `Cc1ccc(S(=O)(=O)N=S(=O)(CCCCOc2ccc3c(c2)CCC(=O)N3)c2ccc(Cl)c(Cl)c2)cc1` (stereo not shown) [F, 6-[4-(N-p-toluenesulfonyl-3,4-dichlorophenyl-sulfoximino)-butoxy]-3,4-dihydrocarbostyril] returned an IC50 of 900 nM. Further, in series [2], the mortality at 336 h is 0%. Further, in the series with mice, the “Approximate acute toxicity (dose)” value was 250 mg. This molecule also yielded a change in vivo at 2.5 mg/kg in the series with conscious mice of over 212%.
Turning to `N=S(=O)(CCCCOc1ccc2[nH]c(=O)ccc2c1)c1ccc(F)cc1` (stereo not shown) [G, 6-[4-(4-fluorophenyl-sulfoximino)-butoxy]-carbostyril], in series [1], the IC50 came to 400 nM. The mortality at 336 h in series [2] was 0%. Besides, the “Approximate acute toxicity (dose)” value in the series on mice was 250 mg. The change in vivo at 2.5 mg/kg in the series with conscious mice was determined as 85%.
Molecule `N=S(=O)(CCCCOc1ccc2[nH]c(=O)ccc2c1)c1ccc(Cl)cc1` (stereo not shown) [H, 6-[4-(4-chlorophenyl-sulfoximino)-butoxy]-carbostyril] gave an IC50 in series [1] of 170 nM. Besides, the mortality at 336 h in series [2] is 0%. Moreover, the “Approximate acute toxicity (dose)” value in the series with mice is 250 mg. The change in vivo at 2.5 mg/kg in the series on conscious mice is 78%.
In series [1], `CC(C)(C)c1ccc(S(=N)(=O)CCCCOc2ccc3c(c2)CCC(=O)N3)cc1` (stereo not shown) [K, 6-[4-(4-tert.butylphenyl-sulfoximino)-butoxy]-3,4-dihydrocarbostyril] returned an IC50 of 240 nM. This molecule also yielded a change in vivo at 2.5 mg/kg with conscious mice of over 180%.
`N=S(=O)(CCCCOc1ccc2c(c1)CCC(=O)N2)c1ccc(C2CCCCC2)cc1` (stereo not shown) [L, 6-[4-(4-cyclohexylphenyl-sulfoximino)-butoxy]-3,4-dihydrocarbostyril] displayed an IC50 in series [1] of 52 nM. Besides, in the series with conscious mice, the change in vivo at 2.5 mg/kg was over 191%.
For `CC(C)(C)c1ccc(S(=N)(=O)CCCCOc2ccc3[nH]c(=O)ccc3c2)cc1` (stereo not shown) [M, 6-[4-(4-tert.butylphenyl-sulfoximino)-butoxy]-carbostyril], in that order: 210 nM and over 191%.
Take `N=S(=O)(CCCCOc1ccc2[nH]c(=O)ccc2c1)C1CCCCC1` (stereo not shown) [N, 6-(4-cyclohexylsulfoximino-butoxy)-carbostyril]: in series [1], it took 680 nM to reach half-maximal inhibition (IC50). Besides, the change in vivo at 2.5 mg/kg in the series on conscious mice is over 184%.
For `CCCC(=O)N=S(=O)(CCCCOc1ccc2c(c1)CCC(=O)N2)c1ccc(Cl)c(Cl)c1` (stereo not shown) [O, 6-[4-(N-butyryl-3,4-dichlorophenyl-sulfoximino)-butoxy]-3,4-dihydrocarbostyril], in that order: 530 nM and over 233%.
For `CC(=O)N=S(=O)(CCCCOc1ccc2c(c1)C(C)(C)C(=O)N2)c1ccc(Cl)cc1` (stereo not shown) [P, 5-[4-(N-Acetyl-4-chlorophenyl-sulfoximino)-butoxy]-3,3-dimethyl-indolin-2-one], in that order: 1800 nM and over 169%.
For `COc1ccc(S(=O)(CCCCOc2ccc3c(c2)CCC(=O)N3)=NC(=O)c2ccc(C(C)(C)C)cc2)cc1OC` (stereo not shown) [Q, 6-[4-(N-tert.benzoyl-3,4-dimethoxyphenyl-sulfoximino)-butoxy]-3,4-dihydrocarbostyril], in that order: 3100 nM and over 158%.
In the case of `COc1ccc(S(=N)(=O)CCCCOc2ccc3c(c2)CCC(=O)N3)cc1OC` (stereo not shown) [R, 6-[4-(3,4-dimethoxyphenyl-sulfoximino)-butoxy]-3,4-dihydrocarbostyril], the half-maximal inhibitory concentration (IC50) in series [1] worked out at 1600 nM. This molecule came in with a change in vivo at 2.5 mg/kg in the series on conscious mice of over 218%.

These data come from patent US4551464A, “Antithrombotic sulfoximino carbostyrils” (Dr. Karl Thomae Gesellschaft mit beschrankter Haftung, priority 1981, dated 1985).
